Measurements from patent US11352396B2, “Antimicrobial peptides and methods of using same” (Zoetis Services LLC, priority 2017, dated 2022).

What was measured:
[1] = tested on: MSSP (Methicillin-Susceptible Staphylococcus pseudintermedius); assay: MIC against selected strains of MSSP; assay type: cell-based; set-up: key to MIC MSSP 84658 / MIC MSSP 86000 / MIC MSSP 71990 / MIC MSSP 72036 / MIC MSSP 78032: MIC in μM; key to MIC MSSP 86001 / MIC MSSP 72191 / MIC MSSP 76986 / MIC MSSP 77378: MIC in μM (first well with no visible growth); MIC MSSP 49051 / MIC MSSP 81923 / MIC MSSP 84250 / Effect on MSSP 86000 / Effect on MSSP 72036 / Effect on MSSP 78032: unit not given beside the values; conditions: for MIC MSSP 49051: strain 49051, Table 3; for MIC MSSP 71990: strain 71990, Table 3; for MIC MSSP 72036: strain 72036, Table 3; for MIC MSSP 72191: strain 72191, Table 3; for MIC MSSP 76986: strain 76986, Table 3; for MIC MSSP 77378: strain 77378, Table 3; for MIC MSSP 78032: strain 78032, Table 3; for MIC MSSP 81923: strain 81923, Table 3; for MIC MSSP 84250: strain 84250, Table 3; for MIC MSSP 84658: strain 84658, Table 3; for MIC MSSP 86000: strain 86000, Table 3; for MIC MSSP 86001: strain 86001, Table 3
Procedure: (§1) Peptides according to SEQ ID NOs as listed in Table 1 were prepared by a commercial manufacturer (CS Bio, Menlo Park, Calif.) using solid phase synthesis. Antimicrobial activity was assessed by determining the Minimal Inhibitory Concentration (MIC) against S. aureus and E. coli. Briefly, Microbroth MICs were performed using CLSI methodology (VET01-S2). For S. aureus and E. coli ATCC strains, TSA with 5% lysed horse blood agar was used for overnight culturing at 37° C. ambient air. A 0.5 mM stock for each peptide was made with cell culture water, 0.01% acetic acid and serially diluted and spotted (10 μL) in a 96-well plate for in assay dose titration concentration of 50 μM to 0.05 μM. 0.5 McFarland Standard of each strain was diluted 1:250 in Mueller-Hinton Broth (MHB). 90 μL of culture suspension was then added upon drug in the 96-well plate for overnight incubation for 18-20 hours. The MIC was determined visually at the first well of no visible growth at the corresponding concentration.
(§2) Antimicrobial activity of the peptides listed in Table 2 against different strains of MSSP (Methicillin-Susceptible Staphylococcus pseudintermedius) and MRSP (Methicillin-Resistant Staphylococcus pseudintermedius) was further assessed. The results are in Tables 3 and 4, respectively.

[2] = tested on: MRSP (Methicillin-Resistant Staphylococcus pseudintermedius); assay: MIC against selected strains of MRSP; assay type: cell-based; set-up: key to MIC MRSP 88493 / MIC MRSP 72035 / MIC MRSP 81926: MIC in μM; key to MIC MRSP 71994 / MIC MRSP 79882 / MIC MRSP 80729 / MIC MRSP 86002: MIC in μM (first well with no visible growth); key to MIC MRSP 72192 / MIC MRSP 76923 / MR 71994 / Mr 88493 / MR 72035 / MR 72192 / MR 76923 / MR 79882 / MR 80279 / MR 81926 / MR 86002 / MR 87665: MIC in μM (visual, first well with no growth); MIC MRSP 87655: unit not given beside the values; conditions: for MIC MRSP 71994: strain 71994, Table 4; for MIC MRSP 72035: strain 72035, Table 4; for MIC MRSP 72192: strain 72192, Table 4; for MIC MRSP 76923: strain 76923, Table 4; for MIC MRSP 79882: strain 79882, Table 4; for MIC MRSP 80729: strain 80729, Table 4; for MIC MRSP 81926: strain 81926, Table 4; for MIC MRSP 86002: strain 86002, Table 4; for MIC MRSP 87655: strain 87655, Table 4; for MIC MRSP 88493: strain 88493, Table 4
Procedure: as §1, §2

[3] = tested on: Canine-derived epithelial keratinocyte (CPEK) cells; assay type: cell-based
Procedure: Safety of the peptides listed in table 2 was determining by measuring cell viability. Canine-derived epithelial keratinocyte (CPEK) cells were propagated to determine cell viability in the presence of peptides. Cells were grown from a frozen stock in CnT-09-5 (with supplements) pre-warmed media in a T75 flask and incubated overnight at 37° C., 5% CO2. Cells were washed with phosphate buffer and replenished with pre-warmed CnT-05-9 media and repeated for several days until cells reached a density of 6.6×10^4 cells/mL. Cells were then transferred to a 384 well plate, allowed to settle and dosed with peptides and melittin control peptide (50 μM to 0.05 μM) and incubated overnight at 37° C., 5% CO2. 0.1% TritonX100 as (HPE) and phosphate buffer alone as (ZPE) were added to the plates to calculate percent effect once the assay was terminated with 10 μL CELLTITER-GLO® assay reagents for a luminescent readout.

cRBC = assay type: cell-based, canine
Procedure: SEQ ID NO: 1 was selected for further research. Toxicity of SEQ ID NO: 1 to eukaryotic blood cells was compared to that of tachyplesin (SEQ ID NO: 13). A standard, well referenced red blood cell hemolysis assay was employed against multiple species to test the lysis potential of the peptides. Red blood cells (RBCs) were prepared and isolated by several centrifuge and wash steps to remove the plasma fraction. A dose titration (50 μM to 0.05 μM) of test peptides and control peptide melittin were spotted from 50 mM stocks in a 384 well plate. Prepared RBCs were incubated with peptide for one hour at 37° C. Percent hemolysis was measured by optical density at 405 nm and utilizing 1% TritonX100 as hundred percent effect (HPE) and phosphate buffer alone as zero percent effect (ZPE).

Substance | MIC MSSP 49051 [1] | MIC MSSP 71990 [1] | MIC MSSP 72036 [1] | MIC MSSP 72191 [1] | MIC MSSP 76986 [1] | MIC MSSP 77378 [1] | MIC MSSP 78032 [1] | MIC MSSP 81923 [1] | MIC MSSP 84250 [1] | MIC MSSP 84658 [1] | MIC MSSP 86000 [1] | MIC MSSP 86001 [1] | MIC MRSP 71994 [2] | MIC MRSP 72035 [2] | MIC MRSP 72192 [2] | MIC MRSP 76923 [2] | MIC MRSP 79882 [2] | MIC MRSP 80729 [2] | MIC MRSP 81926 [2] | MIC MRSP 86002 [2] | other results
6 (KWCFRVCRRGICYRRCRD; Artificial Antimicrobial peptide) [compound 6] | 3.1 | 3.1 | 3.1 | 3.1 | 3.1 | 1.6 | 3.1 | 3.1 | 3.1 | 3.1 | 3.1 | 3.1 | 3.1 | 3.1 | 3.1 | 3.1 | 3.1 | 3.1 | 3.1 | 3.1 | MIC MRSP 87655 [2]: 3.1; MIC MRSP 88493 [2]: 3.1; CPEK (50 μM) [3]: 4.1; cRBC (50 μM) (cRBC): 1.1
5 (KWCFYVCYRGICYRRCRD; Artificial Antimicrobial peptide) [compound 5] | 1.6 | 1.6 | 1.6 | 1.6 | 1.6 | 0.8 | 1.6 | 1.6 | 1.6 | 1.6 | 1.6 | 1.6 | 1.6 | 1.6 | 1.6 | 1.6 | 1.6 | 1.6 | 1.6 | 1.6 | MIC MRSP 87655 [2]: 1.6; MIC MRSP 88493 [2]: 1.6; CPEK (50 μM) [3]: 28.6; cRBC (50 μM) (cRBC): 3.1
7 (KWCFRVCYRGVCYRRCRD; Artificial Antimicrobial peptide) [compound 7] | 1.6 | 1.6 | 1.6 | 1.6 | 1.6 | 0.8 | 1.6 | 1.6 | 1.6 | 1.6 | 1.6 | 1.6 | 1.6 | 1.6 | 1.6 | 1.6 | 1.6 | 1.6 | 1.6 | 1.6 | MIC MRSP 87655 [2]: 1.6; MIC MRSP 88493 [2]: 1.6; CPEK (50 μM) [3]: 11.3; cRBC (50 μM) (cRBC): 84.1
1 (KWCFRVCYRGICYRRCRD; Antimicrobial peptide) [compound 1] | 1.6 | 1.6 | 1.6 | 1.6 | 1.6 | 1.6 | 1.6 | 1.6 | 1.6 | 1.6 | 1.6 | 1.6 | 1.6 | 1.6 | 1.6 | 1.6 | 1.6 | 1.6 | 1.6 | 1.6 | MIC MRSP 87655 [2]: 1.6; MIC MRSP 88493 [2]: 1.6; CPEK (50 μM) [3]: 21.5; cRBC (50 μM) (cRBC): 20.5
4 (KFCFRVCYRGICYRRCRD; Artificial antimicrobial peptide) [compound 4] | 1.6 | 1.6 | 0.8 | 0.8 | 0.8 | 0.4 | 0.8 | 1.6 | 1.6 | 1.6 | 1.6 | 0.8 | 1.6 | 1.6 | 1.6 | 0.8 | 0.8 | 0.8 | 0.8 | 1.6 | MIC MRSP 87655 [2]: 1.6; MIC MRSP 88493 [2]: 1.6; CPEK (50 μM) [3]: 16.6; cRBC (50 μM) (cRBC): 67.1
11 (KWCFRVCYRGICYRRCND; Artificial Antimicrobial peptide) [compound 11] | 0.8 | 1.6 | 0.8 | 0.8 | 0.8 | 0.4 | 0.8 | 1.6 | 0.8 | 0.8 | 0.4 | 0.8 | 1.6 | 1.6 | 0.8 | 0.8 | 0.8 | 0.8 | 0.8 | 0.8 | MIC MRSP 87655 [2]: 0.8; MIC MRSP 88493 [2]: 1.6; CPEK (50 μM) [3]: 22.0; cRBC (50 μM) (cRBC): 57.8
3 (GWCFRVCYRGICYRRCRD; Artificial Antimicrobial peptide) [compound 3] | 1.6 | 1.6 | 1.6 | 1.6 | 1.6 | 0.4 | 1.6 | 1.6 | 1.6 | 1.6 | 1.6 | 0.8 | 1.6 | 1.6 | 1.6 | 1.6 | 0.8 | 1.6 | 1.6 | 1.6 | MIC MRSP 87655 [2]: 1.6; MIC MRSP 88493 [2]: 1.6; CPEK (50 μM) [3]: 42.1; cRBC (50 μM) (cRBC): 67.1
